Here are results for 20 molecules from patent US20200029564A1, “NOVEL 5-SUBSTITUTED IMIDAZOLYLMETHYLOXIRANE DERIVATIVES” (Bayer CropScience Aktiengesellschaft, priority 2016, published 2020).

By chromatographic logP is commonly meant lipophilicity estimated from chromatographic retention. Higher therefore signals higher lipophilicity.

One data set has as its system Septoria tritici. Briefly: In vivo preventive test on Septoria tritici (leaf spot on wheat). The following applies: Zymoseptoria tritici, 576 h; 500 ppm of active ingredient; preventive spray on young wheat plants; evaluated 24 days after inoculation; read-out: efficacy. As to the method:
Example B: In Vivo Preventive Test on Septoria tritici (Leaf Spot on Wheat) [table] The active ingredients are made soluble and homogenized in a mixture of Dimethyl sulfoxide/Acetone/Tween® 80 and then diluted in water to the desired concentration. The young plants of wheat are treated by spraying the active ingredient prepared as described above. Control plants are treated only with an aqueous solution of Acetone/Dimethyl sulfoxide/Tween® 80. After 24 hours, the plants are contaminated by spraying the leaves with an aqueous suspension of Septoria tritici spores. The contaminated wheat plants are incubated for 72 hours at 18° C. and at 100% relative humidity and then for 21 days at 20° C. and at 90% relative humidity. The test is evaluated 24 days after the inoculation. 0% means an efficacy which corresponds to that of the control plants while an efficacy of 100% means that no disease is observed.

The test system of data set [1] is Blumeria graminis fsp. hordei. In words: In vivo preventive Blumeria test (barley). The note with it: 168 h, 500 ppm of active ingredient, preventive spray on young barley plants, evaluated 7 days after inoculation, read-out: efficacy. On the procedure: Example F: In Vivo Preventive Blumeria Test (Barley) [table] To produce a suitable preparation of active compound, 1 part by weight of active compound or active compound combination is mixed with the stated amounts of solvent and emulsifier, and the concentrate is diluted with water to the desired concentration. To test for preventive activity, young plants are sprayed with the preparation of active compound or active compound combination at the stated rate of application. After the spray coating has been dried, the plants are dusted with spores of Blumeria graminis fsp. hordei. The plants are placed in the greenhouse at a temperature of approximately 18° C. and a relative atmospheric humidity of approximately 80% to promote the development of mildew pustules. The test is evaluated 7 days after the inoculation. 0% means an efficacy which corresponds to that of the untreated control, while an efficacy of 100% means that no disease is observed.

Data set [2] in a line: LogP by HPLC on reversed phase columns (EEC directive 79/831 Annex V.A8). The following applies: method [a]: LC-UV, acidic range, 0.1% formic acid in water and acetonitrile as eluent; for chromatographic logP: reversed phase HPLC column. It is filed as physicochemical. As to the method: [table] If more than one Log P value is available within the same method, all the values are given and separated by “+”. Calibration was done with straight-chain alkan2-ones (with 3 to 16 carbon atoms) with known Log P values (measurement of Log P values using retention times with linear interpolation between successive alkanones). Lambda-max-values were determined using UV-spectra from 200 nm to 400 nm and the peak values of the chromatographic signals.

For a further data set, the system named is Puccinia recondita. In words: In vivo preventive test on Puccinia recondita (brown rust on wheat). The following applies: 264 h, 500 ppm of active ingredient, preventive spray on young wheat plants, evaluated 11 days after inoculation, read-out: efficacy. On the procedure:
(§1) Example A: In Vivo Preventive Test on Puccinia recondita (Brown Rust on Wheat) [table] The active ingredients are made soluble and homogenized in a mixture of Dimethyl sulfoxide/Acetone/Tween® 80 and then diluted in water to the desired concentration. The young plants of wheat are treated by spraying the active ingredient prepared as described above. Control plants are treated only with an aqueous solution of Acetone/Dimethyl sulfoxide/Tween® 80. After 24 hours, the plants are contaminated by spraying the leaves with an aqueous suspension of Puccinia recondita spores. The contaminated wheat plants are incubated for 24 hours at 20° C. and at 100% relative humidity and then for 10 days at 20° C. and at 70-80% relative humidity. The test is evaluated 11 days after the inoculation. 0% means an efficacy which corresponds to that of the control plants while an efficacy of 100% means that no disease is observed.

The test system of another data set is Uromyces appendiculatus. Briefly: In vivo preventive test on Uromyces appendiculatus (bean rust). The note with it: 264 h, 500 ppm of active ingredient, preventive spray on young bean plants, evaluated 11 days after inoculation, read-out: efficacy. On the procedure: as §1, with “D:” for “A:”, “Uromyces appendiculatus (Bean Rust)” for “Puccinia recondita (Brown Rust on Wheat)”, “bean” for “wheat”, “Uromyces appendiculatus” for “Puccinia recondita”

Another data set concerns Sphaerotheca fuliginea. Briefly: In vivo preventive test on Sphaerotheca fuliginea (powdery mildew on cucurbits). The following applies: Podosphaera fuliginea, 360 h; 500 ppm of active ingredient; preventive spray on young gherkin plants; evaluated 15 days after inoculation; read-out: efficacy. As to the method:
Example C: In Vivo Preventive Test on Sphaerotheca fuliginea (Powdery Mildew on Cucurbits) [table] The active ingredients are made soluble and homogenized in a mixture of Dimethyl sulfoxide/Acetone/Tween® 80 and then diluted in water to the desired concentration. The young plants of gherkin are treated by spraying the active ingredient prepared as described above. Control plants are treated only with an aqueous solution of Acetone/Dimethyl sulfoxide/Tween® 80. After 24 hours, the plants are contaminated by spraying the leaves with an aqueous suspension of Sphaerotheca fuidiginea spores. The contaminated gherkin plants are incubated for 72 hours at 18° C. and at 100% relative humidity and then for 12 days at 20° C. and at 70-80% relative humidity. The test is evaluated 15 days after the inoculation. 0% means an efficacy which corresponds to that of the control plants while an efficacy of 100% means that no disease is observed.

For the molecule `N#Cc1cncn1CC1(c2ccc(Cl)cc2)OC1c1ccccc1Cl` (stereo not drawn) [I-06], the pest or weed control at 500 ppm (in the data set on Septoria tritici; in data set [1]; in the data set with Puccinia recondita; in the data set on Uromyces appendiculatus; with Sphaerotheca fuliginea) was 90 to 100% each time. Moreover, in data set [2], the chromatographic logP was 3.68.

Consider `N#Cc1cncn1C[C@]1(c2ccc(F)cc2)O[C@H]1c1ccccc1Cl` (relative stereo) [I-03, trans 3-[[3-(2-chlorophenyl)-2-(4-fluorophenyl)oxiran-2-yl]methyl]imidazole-4-carbonitrile], for which the pest or weed control at 500 ppm (in the data set with Septoria tritici; in data set [1]; with Uromyces appendiculatus; with Sphaerotheca fuliginea) was 90 to 100% each time. The same molecule gave a chromatographic logP in data set [2] of 3.33.

With `N#Cc1cncn1CC1(c2ccc(F)cc2Cl)OC1c1ccccc1Cl` (stereo not drawn) [I-29], the pest or weed control at 500 ppm (in the data set on Septoria tritici; in data set [1]; in the data set with Puccinia recondita; with Uromyces appendiculatus; in the data set with Sphaerotheca fuliginea) was 90 to 100% throughout. Moreover, in data set [2], the chromatographic logP was 3.71.

As to `Fc1ccc(C2(Cn3cncc3F)OC2c2cccnc2Cl)cc1` (stereo not drawn) [I-15], the chromatographic logP in data set [2] was 1.57. Besides, in the data set on Sphaerotheca fuliginea, the pest or weed control at 500 ppm fell in the range of 90 to 100%.

For the molecule `N#Cc1cncn1CC1(c2ccc(Br)cc2)OC1c1ccccc1Cl` (stereo not drawn) [I-08], the pest or weed control at 500 ppm in the data set with Septoria tritici, with Uromyces appendiculatus and in the data set with Sphaerotheca fuliginea was 90 to 100% in each case. Further, the chromatographic logP in data set [2] stood at 3.85.

Take `N#Cc1cncn1CC1(c2ccc(F)cc2)OC1c1ccnc(Cl)c1` (stereo not drawn) [I-20]: the pest or weed control at 500 ppm with Septoria tritici, in the data set on Puccinia recondita, with Uromyces appendiculatus and in the data set with Sphaerotheca fuliginea was 90 to 100% each time. The molecule further showed a chromatographic logP in data set [2] of 2.5.

For `N#Cc1cncn1CC1(c2ccc(F)cc2)OC1c1ccc(Cl)cc1` (stereo not drawn) [I-24], the pest or weed control at 500 ppm with Septoria tritici, in the data set with Puccinia recondita, in the data set with Uromyces appendiculatus and in the data set on Sphaerotheca fuliginea was 90 to 100% in each case. The chromatographic logP in data set [2] came to 3.37.

For `N#Cc1cncn1CC1(c2ccc(Cl)cc2)OC1c1ccccc1F` (stereo not drawn) [I-10], the pest or weed control at 500 ppm (in the data set on Septoria tritici; in data set [1]; in the data set with Puccinia recondita; in the data set on Uromyces appendiculatus; in the data set on Sphaerotheca fuliginea) was 90 to 100% in each case. In addition, the chromatographic logP in data set [2] came to 3.41.

As for `N#Cc1cncn1CC1(c2ccc(F)cc2F)OC1c1ccccc1Cl` (stereo not drawn) [I-09], the pest or weed control at 500 ppm in the data set on Septoria tritici, in the data set on Uromyces appendiculatus and with Sphaerotheca fuliginea was 90 to 100% each time. This molecule also gave a chromatographic logP in data set [2] of 3.06.

Consider `N#Cc1cncn1CC1(c2ccc(F)cc2)OC1c1cccnc1Cl` (stereo not drawn) [I-16], for which the chromatographic logP in data set [2] amounted to 2.2. The pest or weed control at 500 ppm in the data set on Sphaerotheca fuliginea fell in the range of 90 to 100%.

Turning to `N#Cc1cncn1CC1(c2ccc(F)cc2)OC1c1cccc(Br)c1` (stereo not drawn) [I-23], the pest or weed control at 500 ppm in the data set on Septoria tritici, in the data set on Puccinia recondita, in the data set on Uromyces appendiculatus and in the data set on Sphaerotheca fuliginea was 90 to 100% throughout. The same molecule registered a chromatographic logP in data set [2] of 3.44.

Take `Fc1ccc(C2(Cn3cncc3F)OC2c2ccccc2Cl)cc1` (stereo not drawn) [I-02]: the pest or weed control at 500 ppm (with Septoria tritici; in data set [1]; with Puccinia recondita; with Uromyces appendiculatus; in the data set on Sphaerotheca fuliginea) was 90 to 100% in each case. Further, the chromatographic logP in data set [2] amounted to 2.62.

As to `COc1ccc(C2(Cn3cncc3C#N)OC2c2ccccc2Cl)cn1` (stereo not drawn) [I-19], the pest or weed control at 500 ppm in the data set on Septoria tritici is 90 to 100%; in the data set with Puccinia recondita it was 90 to 100%; in the data set on Uromyces appendiculatus, 80 to 89%; in the data set on Sphaerotheca fuliginea, 90 to 100%. In data set [2], the chromatographic logP amounted to 2.86.

As to `N#Cc1cncn1CC1(c2ccc(F)cc2)OC1c1ccccc1Br` (stereo not drawn) [I-13], the pest or weed control at 500 ppm (in the data set on Septoria tritici; in data set [1]; in the data set with Puccinia recondita; in the data set on Uromyces appendiculatus) was 90 to 100% in each case. This molecule also had a chromatographic logP in data set [2] of 3.44.

As to `N#Cc1cncn1CC1(c2ccc(Cl)cc2)OC1c1ccccc1Br` (stereo not drawn) [I-11], the pest or weed control at 500 ppm is 90 to 100% in the data set on Septoria tritici, 80 to 89% in data set [1], 90 to 100% in the data set with Puccinia recondita and 90 to 100% with Uromyces appendiculatus. Besides, the chromatographic logP in data set [2] was 3.83.

For the molecule `N#Cc1cncn1CC1(c2ccc(F)cc2)OC1c1cccnc1Cl` (stereo not drawn) [I-17], the pest or weed control at 500 ppm with Septoria tritici and in the data set on Uromyces appendiculatus was 90 to 100% in each case. In addition, the LogP in data set [2] is 2.50 ^[a].

Regarding `N#Cc1cncn1C[C@]1(c2ccc(F)cc2)O[C@@H]1c1ccccc1Cl` (relative stereo) [I-04, cis 3-[[3-(2-chlorophenyl)-2-(4-fluorophenyl)oxiran-2-yl]methyl]imidazole-4-carbonitrile], the figures for the pest or weed control at 500 ppm in the data set on Septoria tritici, with Uromyces appendiculatus and in the data set with Sphaerotheca fuliginea were 80 to 89%, 80 to 89% and 90 to 100%, respectively. Moreover, the chromatographic logP in data set [2] worked out at 2.98.

Turning to `COc1ccc(C2(Cn3cncc3C#N)OC2c2ccccc2Cl)cc1` (stereo not drawn) [I-22], the pest or weed control at 500 ppm in the data set with Septoria tritici, in the data set on Puccinia recondita, in the data set with Uromyces appendiculatus and in the data set on Sphaerotheca fuliginea was 90 to 100% throughout. Also, the chromatographic logP in data set [2] came to 3.26.

With `Fc1ccc(C2(Cn3cncc3F)OC2c2ccccc2Br)cc1` (stereo not drawn) [I-14], the pest or weed control at 500 ppm (in the data set on Septoria tritici; in data set [1]; with Uromyces appendiculatus; in the data set with Sphaerotheca fuliginea) was 90 to 100% in each case. The same molecule gave a chromatographic logP in data set [2] of 2.66.

As to `N#Cc1cncn1CC1(c2ccc(F)cc2)OC1c1cccc(Cl)c1` (stereo not drawn) [I-21], the pest or weed control at 500 ppm is 80 to 89% with Septoria tritici, 90 to 100% in the data set on Puccinia recondita, 90 to 100% in the data set on Uromyces appendiculatus and 90 to 100% in the data set with Sphaerotheca fuliginea. In data set [2], the chromatographic logP is 3.35.
